Data as given in ChEMBL document CHEMBL4507268 (2021).

Tests used:
[1] = tested on: Tyrosine-protein kinase ABL1 (Homo sapiens), P00519 [E255K]; settings: Compound concentration 1000.0 nM
[2] = molecular target: Ankyrin repeat and protein kinase domain-containing protein 1 (Homo sapiens) (UniProt Q8NFD2); settings: Compound concentration 1000.0 nM
[3] = molecular target: T1, Aurora kinase C (Homo sapiens) (UniProt Q9UQB9); settings: Compound concentration 1000.0 nM
T1 sequence (whole entry): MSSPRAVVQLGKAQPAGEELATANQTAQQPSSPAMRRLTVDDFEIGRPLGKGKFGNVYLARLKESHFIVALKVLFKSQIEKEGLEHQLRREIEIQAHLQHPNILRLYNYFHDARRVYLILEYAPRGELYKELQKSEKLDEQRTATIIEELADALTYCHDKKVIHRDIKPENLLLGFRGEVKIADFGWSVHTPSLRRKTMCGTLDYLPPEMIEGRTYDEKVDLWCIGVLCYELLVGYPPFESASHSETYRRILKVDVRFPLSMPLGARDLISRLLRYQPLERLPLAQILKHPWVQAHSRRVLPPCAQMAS

[4] = molecular target: T2, Dual specificity tyrosine-phosphorylation-regulated kinase 2 (Homo sapiens) (UniProt Q92630); settings: Compound concentration 1000.0 nM
T2 sequence (whole entry): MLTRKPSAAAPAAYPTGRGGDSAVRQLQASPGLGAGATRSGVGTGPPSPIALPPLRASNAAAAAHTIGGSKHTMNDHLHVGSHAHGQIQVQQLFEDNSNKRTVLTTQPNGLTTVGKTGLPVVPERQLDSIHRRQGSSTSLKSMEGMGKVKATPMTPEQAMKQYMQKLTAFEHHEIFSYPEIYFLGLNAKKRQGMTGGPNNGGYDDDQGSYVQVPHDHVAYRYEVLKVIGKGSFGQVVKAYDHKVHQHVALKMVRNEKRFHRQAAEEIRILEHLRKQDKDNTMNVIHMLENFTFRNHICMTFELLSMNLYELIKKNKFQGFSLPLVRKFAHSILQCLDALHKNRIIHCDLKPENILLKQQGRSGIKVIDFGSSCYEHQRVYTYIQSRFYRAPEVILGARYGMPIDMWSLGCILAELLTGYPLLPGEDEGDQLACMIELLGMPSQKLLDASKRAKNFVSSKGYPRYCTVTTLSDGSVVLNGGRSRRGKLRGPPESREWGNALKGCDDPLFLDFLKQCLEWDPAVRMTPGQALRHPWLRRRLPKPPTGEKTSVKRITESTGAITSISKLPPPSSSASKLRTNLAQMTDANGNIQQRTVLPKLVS

[5] = molecular target: T3, Mitogen-activated protein kinase kinase kinase 3 (Homo sapiens) (UniProt Q99759); settings: Compound concentration 1000.0 nM
T3 sequence (whole entry): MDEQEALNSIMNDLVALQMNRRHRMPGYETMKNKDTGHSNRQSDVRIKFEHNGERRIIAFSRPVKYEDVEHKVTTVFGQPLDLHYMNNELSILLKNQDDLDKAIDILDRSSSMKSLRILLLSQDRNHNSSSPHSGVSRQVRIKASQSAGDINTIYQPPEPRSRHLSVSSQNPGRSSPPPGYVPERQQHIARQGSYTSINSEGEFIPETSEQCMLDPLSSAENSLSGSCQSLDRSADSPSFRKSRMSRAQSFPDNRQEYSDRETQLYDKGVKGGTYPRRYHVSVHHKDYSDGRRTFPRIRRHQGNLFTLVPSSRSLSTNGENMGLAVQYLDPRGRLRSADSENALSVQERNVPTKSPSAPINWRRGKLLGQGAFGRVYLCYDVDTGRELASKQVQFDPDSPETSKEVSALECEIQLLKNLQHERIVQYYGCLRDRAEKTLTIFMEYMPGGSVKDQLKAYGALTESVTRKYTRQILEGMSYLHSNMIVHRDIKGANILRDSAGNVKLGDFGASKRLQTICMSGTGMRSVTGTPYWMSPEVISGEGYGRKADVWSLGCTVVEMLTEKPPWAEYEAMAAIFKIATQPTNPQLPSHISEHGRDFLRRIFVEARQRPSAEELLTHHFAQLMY

[6] = molecular target: T4, Tyrosine-protein kinase Mer (Homo sapiens) (UniProt Q12866); settings: Compound concentration 1000.0 nM
T4 sequence (whole entry): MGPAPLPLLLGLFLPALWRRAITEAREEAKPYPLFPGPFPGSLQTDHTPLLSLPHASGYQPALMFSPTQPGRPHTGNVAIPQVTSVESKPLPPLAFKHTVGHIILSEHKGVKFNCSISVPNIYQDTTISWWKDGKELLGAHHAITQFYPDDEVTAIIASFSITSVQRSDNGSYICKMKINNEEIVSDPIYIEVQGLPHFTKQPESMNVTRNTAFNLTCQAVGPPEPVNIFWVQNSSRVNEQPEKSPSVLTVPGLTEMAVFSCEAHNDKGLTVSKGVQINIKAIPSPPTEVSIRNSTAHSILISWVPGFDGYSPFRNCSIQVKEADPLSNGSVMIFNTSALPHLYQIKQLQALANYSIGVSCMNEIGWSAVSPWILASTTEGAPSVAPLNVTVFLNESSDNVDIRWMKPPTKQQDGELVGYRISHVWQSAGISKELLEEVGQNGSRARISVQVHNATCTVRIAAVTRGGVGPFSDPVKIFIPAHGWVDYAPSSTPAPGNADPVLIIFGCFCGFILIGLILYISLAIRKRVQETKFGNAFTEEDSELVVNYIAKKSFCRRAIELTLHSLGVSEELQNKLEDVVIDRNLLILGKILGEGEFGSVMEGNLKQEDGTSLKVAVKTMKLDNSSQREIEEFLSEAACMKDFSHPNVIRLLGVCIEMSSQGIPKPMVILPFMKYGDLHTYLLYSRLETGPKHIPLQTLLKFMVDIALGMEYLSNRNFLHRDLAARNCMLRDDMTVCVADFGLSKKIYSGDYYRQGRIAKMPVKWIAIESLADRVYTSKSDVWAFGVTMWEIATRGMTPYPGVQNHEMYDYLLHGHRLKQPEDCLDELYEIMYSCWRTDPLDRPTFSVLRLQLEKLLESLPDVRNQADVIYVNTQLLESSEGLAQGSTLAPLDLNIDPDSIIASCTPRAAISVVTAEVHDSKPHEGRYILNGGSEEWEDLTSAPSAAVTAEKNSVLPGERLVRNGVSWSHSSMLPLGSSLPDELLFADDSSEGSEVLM

[7] = tested on: Phosphatidylinositol 4,5-bisphosphate 3-kinase catalytic subunit alpha isoform (Homo sapiens), P42336 [E545K]; settings: Compound concentration 1000.0 nM
[8] = molecular target: Phosphatidylinositol 4-kinase beta (Homo sapiens) (UniProt Q9UBF8); settings: Compound concentration 1000.0 nM
[9] = molecular target: Uncharacterized serine/threonine-protein kinase SBK3 (Homo sapiens) (UniProt P0C264); settings: Compound concentration 1000.0 nM
[10] = molecular target: Serine/threonine-protein kinase 16 (Homo sapiens) (UniProt O75716); settings: Compound concentration 1000.0 nM
[11] = molecular target: Alpha-2C adrenergic receptor (Homo sapiens) (UniProt P18825); settings: Compound concentration 10.0 uM
Alpha-2C adrenergic receptor (Homo sapiens), sequence (P18825 whole entry): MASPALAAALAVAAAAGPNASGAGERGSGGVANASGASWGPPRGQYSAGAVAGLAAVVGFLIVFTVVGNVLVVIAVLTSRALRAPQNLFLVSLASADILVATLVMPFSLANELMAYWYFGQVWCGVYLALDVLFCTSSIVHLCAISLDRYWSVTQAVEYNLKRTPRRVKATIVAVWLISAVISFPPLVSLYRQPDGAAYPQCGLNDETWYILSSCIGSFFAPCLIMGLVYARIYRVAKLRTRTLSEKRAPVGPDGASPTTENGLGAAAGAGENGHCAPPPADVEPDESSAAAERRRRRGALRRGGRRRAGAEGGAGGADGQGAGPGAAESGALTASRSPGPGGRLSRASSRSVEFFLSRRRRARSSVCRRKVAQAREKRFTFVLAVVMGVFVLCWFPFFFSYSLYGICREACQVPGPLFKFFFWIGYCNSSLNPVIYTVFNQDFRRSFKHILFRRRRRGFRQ

Tyrosine-protein kinase ABL1 (Homo sapiens), P00519 [E255K], sequence (P00519 whole entry E255K, the tested form may be a part): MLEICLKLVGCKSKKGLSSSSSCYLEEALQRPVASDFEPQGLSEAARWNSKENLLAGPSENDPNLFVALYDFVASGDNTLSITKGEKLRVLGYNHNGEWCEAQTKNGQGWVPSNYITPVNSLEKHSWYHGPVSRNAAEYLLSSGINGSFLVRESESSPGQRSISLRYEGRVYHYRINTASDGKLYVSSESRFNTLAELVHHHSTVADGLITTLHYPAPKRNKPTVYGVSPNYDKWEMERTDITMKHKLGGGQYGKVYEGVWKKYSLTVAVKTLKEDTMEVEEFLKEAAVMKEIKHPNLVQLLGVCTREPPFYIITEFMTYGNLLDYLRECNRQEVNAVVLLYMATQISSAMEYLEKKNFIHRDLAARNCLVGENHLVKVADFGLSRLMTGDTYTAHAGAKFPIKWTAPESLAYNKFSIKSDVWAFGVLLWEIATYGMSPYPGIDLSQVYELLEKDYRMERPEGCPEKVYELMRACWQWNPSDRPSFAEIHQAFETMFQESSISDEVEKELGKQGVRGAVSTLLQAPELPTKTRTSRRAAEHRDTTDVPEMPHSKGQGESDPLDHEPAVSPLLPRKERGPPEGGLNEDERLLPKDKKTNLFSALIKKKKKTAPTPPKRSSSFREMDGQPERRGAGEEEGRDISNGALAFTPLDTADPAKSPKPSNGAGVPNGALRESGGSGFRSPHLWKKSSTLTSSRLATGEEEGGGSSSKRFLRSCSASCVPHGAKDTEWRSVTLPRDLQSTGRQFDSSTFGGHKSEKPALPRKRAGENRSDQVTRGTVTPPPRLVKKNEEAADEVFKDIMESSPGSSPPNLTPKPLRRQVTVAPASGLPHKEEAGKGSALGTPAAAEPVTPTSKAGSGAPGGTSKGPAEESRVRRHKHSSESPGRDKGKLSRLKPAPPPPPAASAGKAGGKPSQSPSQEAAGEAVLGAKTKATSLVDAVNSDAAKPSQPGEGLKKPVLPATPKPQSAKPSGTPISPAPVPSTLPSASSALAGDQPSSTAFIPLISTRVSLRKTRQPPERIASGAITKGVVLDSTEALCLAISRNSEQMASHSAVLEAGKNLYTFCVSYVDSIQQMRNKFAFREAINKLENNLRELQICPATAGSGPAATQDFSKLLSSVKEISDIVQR
Ankyrin repeat and protein kinase domain-containing protein 1 (Homo sapiens), sequence (Q8NFD2 whole entry, the tested form may be a part): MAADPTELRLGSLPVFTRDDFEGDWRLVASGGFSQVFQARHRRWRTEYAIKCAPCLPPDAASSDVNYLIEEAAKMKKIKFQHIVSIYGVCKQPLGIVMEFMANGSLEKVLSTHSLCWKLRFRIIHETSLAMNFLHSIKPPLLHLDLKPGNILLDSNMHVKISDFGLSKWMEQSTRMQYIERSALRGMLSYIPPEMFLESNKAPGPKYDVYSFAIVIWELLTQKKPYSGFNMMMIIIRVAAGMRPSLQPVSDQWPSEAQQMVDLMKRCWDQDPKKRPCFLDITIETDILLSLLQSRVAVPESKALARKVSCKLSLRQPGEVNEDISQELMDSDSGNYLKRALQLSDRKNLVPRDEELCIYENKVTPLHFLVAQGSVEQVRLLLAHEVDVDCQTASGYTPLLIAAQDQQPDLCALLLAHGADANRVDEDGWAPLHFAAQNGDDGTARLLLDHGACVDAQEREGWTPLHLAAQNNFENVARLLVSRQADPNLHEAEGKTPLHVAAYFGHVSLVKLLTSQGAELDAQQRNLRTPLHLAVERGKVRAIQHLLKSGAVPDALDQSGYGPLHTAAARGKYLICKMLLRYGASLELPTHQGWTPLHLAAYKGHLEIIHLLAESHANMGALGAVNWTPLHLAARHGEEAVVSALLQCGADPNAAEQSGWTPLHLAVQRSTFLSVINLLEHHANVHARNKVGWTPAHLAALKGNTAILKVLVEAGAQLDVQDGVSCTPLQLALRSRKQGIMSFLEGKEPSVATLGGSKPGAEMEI
Uncharacterized serine/threonine-protein kinase SBK3 (Homo sapiens), sequence (P0C264 whole entry): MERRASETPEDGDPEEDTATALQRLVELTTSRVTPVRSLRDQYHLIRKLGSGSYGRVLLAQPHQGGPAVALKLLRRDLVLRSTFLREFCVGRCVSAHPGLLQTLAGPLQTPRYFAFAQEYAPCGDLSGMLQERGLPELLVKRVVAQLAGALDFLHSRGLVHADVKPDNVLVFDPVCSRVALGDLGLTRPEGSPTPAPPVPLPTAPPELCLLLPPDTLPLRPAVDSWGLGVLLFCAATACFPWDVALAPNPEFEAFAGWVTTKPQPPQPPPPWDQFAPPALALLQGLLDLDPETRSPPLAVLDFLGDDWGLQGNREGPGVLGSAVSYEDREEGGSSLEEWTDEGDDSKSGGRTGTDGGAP
Phosphatidylinositol 4,5-bisphosphate 3-kinase catalytic subunit alpha isoform (Homo sapiens), P42336 [E545K], sequence (P42336 whole entry E545K, canonical isoform): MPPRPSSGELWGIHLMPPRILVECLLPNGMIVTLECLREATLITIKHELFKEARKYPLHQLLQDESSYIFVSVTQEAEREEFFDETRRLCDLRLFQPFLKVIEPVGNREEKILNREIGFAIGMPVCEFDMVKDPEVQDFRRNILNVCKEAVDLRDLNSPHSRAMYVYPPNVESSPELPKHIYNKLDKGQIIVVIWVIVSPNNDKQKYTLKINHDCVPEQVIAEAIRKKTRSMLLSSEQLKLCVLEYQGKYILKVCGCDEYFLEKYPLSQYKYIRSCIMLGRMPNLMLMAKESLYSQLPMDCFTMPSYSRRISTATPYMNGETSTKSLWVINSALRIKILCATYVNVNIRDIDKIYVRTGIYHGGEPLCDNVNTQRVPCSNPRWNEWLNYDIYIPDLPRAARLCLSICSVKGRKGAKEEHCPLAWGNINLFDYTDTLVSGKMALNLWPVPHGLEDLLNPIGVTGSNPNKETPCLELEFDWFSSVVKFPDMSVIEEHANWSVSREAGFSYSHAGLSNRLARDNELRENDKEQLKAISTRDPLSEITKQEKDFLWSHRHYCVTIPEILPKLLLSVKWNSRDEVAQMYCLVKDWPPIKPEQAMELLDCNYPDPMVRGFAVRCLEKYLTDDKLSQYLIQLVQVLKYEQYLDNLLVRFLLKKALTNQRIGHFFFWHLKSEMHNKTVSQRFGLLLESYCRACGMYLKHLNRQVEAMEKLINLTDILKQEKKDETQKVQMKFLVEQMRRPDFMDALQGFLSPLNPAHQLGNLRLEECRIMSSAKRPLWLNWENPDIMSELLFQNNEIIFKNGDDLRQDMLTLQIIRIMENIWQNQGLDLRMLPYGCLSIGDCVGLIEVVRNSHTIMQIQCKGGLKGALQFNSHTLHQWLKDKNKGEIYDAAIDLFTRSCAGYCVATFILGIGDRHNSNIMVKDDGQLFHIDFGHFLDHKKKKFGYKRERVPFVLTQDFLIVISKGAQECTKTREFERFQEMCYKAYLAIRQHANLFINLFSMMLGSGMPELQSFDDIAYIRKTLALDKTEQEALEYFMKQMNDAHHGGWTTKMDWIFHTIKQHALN
Phosphatidylinositol 4-kinase beta (Homo sapiens), sequence (Q9UBF8 2-816 limits assumed): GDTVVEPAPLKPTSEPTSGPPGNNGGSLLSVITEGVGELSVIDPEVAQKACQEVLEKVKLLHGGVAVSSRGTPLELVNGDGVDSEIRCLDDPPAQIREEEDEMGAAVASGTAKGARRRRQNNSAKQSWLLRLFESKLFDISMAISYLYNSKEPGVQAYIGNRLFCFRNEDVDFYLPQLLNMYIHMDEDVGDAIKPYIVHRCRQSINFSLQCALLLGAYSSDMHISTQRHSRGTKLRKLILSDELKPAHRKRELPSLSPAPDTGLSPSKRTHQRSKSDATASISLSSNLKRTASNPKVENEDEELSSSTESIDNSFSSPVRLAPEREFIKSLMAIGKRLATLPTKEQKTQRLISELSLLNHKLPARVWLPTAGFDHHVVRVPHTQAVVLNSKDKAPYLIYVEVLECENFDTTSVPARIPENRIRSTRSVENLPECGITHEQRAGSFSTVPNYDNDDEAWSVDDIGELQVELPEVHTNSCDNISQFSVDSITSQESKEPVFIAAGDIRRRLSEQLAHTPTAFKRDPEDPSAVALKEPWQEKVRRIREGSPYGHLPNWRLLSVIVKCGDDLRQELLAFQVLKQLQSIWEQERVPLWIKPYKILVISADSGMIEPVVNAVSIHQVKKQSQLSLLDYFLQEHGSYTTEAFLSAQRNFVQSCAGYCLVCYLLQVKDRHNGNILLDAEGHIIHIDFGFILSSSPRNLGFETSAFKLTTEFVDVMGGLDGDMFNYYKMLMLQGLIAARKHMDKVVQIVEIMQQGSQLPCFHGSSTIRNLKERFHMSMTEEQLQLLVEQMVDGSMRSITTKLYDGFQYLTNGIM
Serine/threonine-protein kinase 16 (Homo sapiens), sequence (O75716 whole entry): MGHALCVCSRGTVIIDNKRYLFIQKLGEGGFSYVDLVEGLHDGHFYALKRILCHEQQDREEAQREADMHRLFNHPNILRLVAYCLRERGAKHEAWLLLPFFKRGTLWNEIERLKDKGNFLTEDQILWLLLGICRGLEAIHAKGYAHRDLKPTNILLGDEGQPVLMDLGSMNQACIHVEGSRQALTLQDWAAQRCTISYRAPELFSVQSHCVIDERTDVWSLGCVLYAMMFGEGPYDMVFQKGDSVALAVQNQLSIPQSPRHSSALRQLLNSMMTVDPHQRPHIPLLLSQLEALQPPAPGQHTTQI

Cc1nc(C2CCN(C(=O)c3ccc(OC(F)(F)F)cc3N)CC2)c2ncc(N3CCN(C)CC3)cc2n1 [BAY-693]
inactive: residual activity [1] 100% | residual activity [2] 81% | residual activity [3] 100% | residual activity [4] 100% | residual activity [5] 92% | residual activity [6] 87% | residual activity [7] 85% | residual activity [8] 84% | residual activity [9] 77% | residual activity [10] 100% | inhibition [11] -6.01%

CN1CCN(c2cnc3c(C4CCN(C(=O)c5ccc(OC(F)(F)F)cc5N)CC4)ncnc3c2)CC1 [BAY-885]
inactive: residual activity [1] 98% | residual activity [2] 98% | residual activity [3] 67% | residual activity [4] 100% | residual activity [5] 94% | residual activity [6] 75% | residual activity [7] 100% | residual activity [8] 96% | residual activity [9] 72% | residual activity [10] 100% | inhibition [11] -2.34%
